Results taken from patent US10632210B2, “Peptidomimetic compounds and antibody-drug conjugates thereof” (Genentech, Inc., priority 2013, dated 2020).

With `COc1cc2c(cc1OCCCCCC(=O)N1C[C@@H](CCl)c3c1cc(OP(=O)(O)O)c1ccccc31)N(C(=O)OCc1ccc(NC(=O)[C@H](CCCCN)NC(=O)C3(C(=O)NCCCCCN4C(=O)C=CC4=O)CCC3)cc1)C(O)[C@@H]1CCCN1C2=O` (stereo partly shown) the melting point was 98 °C (dec.).
